Consider 1 compound from BindingDB's records for patent US20250188057 (Merck Sharp & Dohme, 2025).

The target in the experiment is T1, Ceramide glucosyltransferase (Homo sapiens, UniProt Q16739).
T1 sequence (Q16739 whole entry): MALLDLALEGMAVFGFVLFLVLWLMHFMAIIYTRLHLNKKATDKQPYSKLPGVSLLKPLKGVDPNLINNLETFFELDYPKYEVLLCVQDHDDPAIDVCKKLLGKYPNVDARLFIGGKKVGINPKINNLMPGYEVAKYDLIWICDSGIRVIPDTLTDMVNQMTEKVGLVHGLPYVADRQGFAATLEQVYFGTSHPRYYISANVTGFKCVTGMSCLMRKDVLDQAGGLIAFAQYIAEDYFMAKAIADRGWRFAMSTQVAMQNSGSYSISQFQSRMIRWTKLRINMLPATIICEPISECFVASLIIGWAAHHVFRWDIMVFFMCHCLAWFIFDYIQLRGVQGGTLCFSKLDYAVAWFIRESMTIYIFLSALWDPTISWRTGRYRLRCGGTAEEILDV
The experiment in a line: UDP-Glo Glucosylceramide Synthase Biochemical Assay. The method, then:
Using Promega's UDP-Glo™ Glycosyltransferase assay kit (Promega Corporation, Madison, WI, USA (Promega)), GCS activity was indirectly measured by detecting the amount of UDP produced. An aliquot of GCS enzyme (1.5 μg crude golgi preparation, total protein) and titrated test compound were aliquoted to each well and incubated for 30 minutes at room temperature. […] An equivalent volume of substrate mixture was then added to each well. Following a 20 h incubation at room temperature to allow for GCS turnover of substrate, an equal volume of UDP detection reagent (Promega) was added to each well and incubated for an additional 75 minutes at room temperature to simultaneously convert the accumulated UDP product into ATP and generate light in a luciferase reaction.

Usually IC50 stands for the concentration that inhibits the measured activity by half. A higher IC50 goes with weaker potency in that assay.

In turn, `CN1C(=O)CC(COc2nc(C3CC3)ncc2C#N)C1c1cccc(Cl)c1` (stereo unspecified) [US20250188057, Compound 101] showed an IC50 of 3.15 µM.
